{"source": "ChEMBL document CHEMBL1201862", "about": "“PubChem BioAssay data set” (2004)", "assay_in_all_cases": "NCI-60 cell line screen, 48 h", "key": {"RPMI-8226": {"tested_on": "RPMI-8226"}, "SK-OV-3": {"tested_on": "SK-OV-3"}, "OVCAR-3": {"tested_on": "OVCAR-3"}, "PC-3": {"tested_on": "PC-3"}, "IGROV-1": {"tested_on": "IGROV-1"}, "A549": {"tested_on": "A549"}, "SF-295": {"tested_on": "SF-295"}, "UACC-257": {"tested_on": "UACC-257"}, "786-0": {"tested_on": "786-0"}, "HOP-62": {"tested_on": "HOP-62"}, "MOLT-4": {"tested_on": "MOLT-4"}, "NCI-H522": {"tested_on": "NCI-H522"}, "HCT-116": {"tested_on": "HCT-116"}, "HOP-92": {"tested_on": "HOP-92"}, "TK-10": {"tested_on": "TK-10"}, "SK-MEL-28": {"tested_on": "SK-MEL-28"}, "CCRF-CEM": {"tested_on": "CCRF-CEM"}, "HL-60": {"tested_on": "HL-60"}, "CAKI-1": {"tested_on": "CAKI-1"}, "SF-539": {"tested_on": "SF-539"}, "NCI-H23": {"tested_on": "NCI-H23"}, "NCI-H226": {"tested_on": "NCI-H226"}, "LOX IMVI": {"tested_on": "LOX IMVI"}, "UACC-62": {"tested_on": "UACC-62"}, "SW-620": {"tested_on": "SW-620"}, "MCF7": {"tested_on": "MCF7"}, "HCC 2998": {"tested_on": "HCC 2998"}, "MDA-MB-231": {"tested_on": "MDA-MB-231"}, "HCT-15": {"tested_on": "HCT-15"}, "DU-145": {"tested_on": "DU-145"}, "RXF 393": {"tested_on": "RXF 393"}, "SN12C": {"tested_on": "SN12C"}, "COLO 205": {"tested_on": "COLO 205"}, "BT-549": {"tested_on": "BT-549"}, "MDA-N": {"tested_on": "MDA-N"}, "SNB-19": {"tested_on": "SNB-19"}, "SF-268": {"tested_on": "SF-268"}, "KM12": {"tested_on": "KM12"}, "EKVX": {"tested_on": "EKVX"}, "MDA-MB-435": {"tested_on": "MDA-MB-435"}, "SNB-75": {"tested_on": "SNB-75"}, "UO-31": {"tested_on": "UO-31"}, "OVCAR-8": {"tested_on": "OVCAR-8"}, "SK-MEL-5": {"tested_on": "SK-MEL-5"}, "SK-MEL-2": {"tested_on": "SK-MEL-2"}, "M14": {"tested_on": "M14"}, "Hs-578T": {"tested_on": "Hs-578T"}, "K562": {"tested_on": "K562"}, "OVCAR-4": {"tested_on": "OVCAR-4"}, "OVCAR-5": {"tested_on": "OVCAR-5"}, "Malme-3M": {"tested_on": "Malme-3M"}, "A498": {"tested_on": "A498"}, "U-251": {"tested_on": "U-251"}, "NCI-H460": {"tested_on": "NCI-H460"}, "SR": {"tested_on": "SR"}, "HT-29": {"tested_on": "HT-29"}, "ACHN": {"tested_on": "ACHN"}}, "note": "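Test compounds were applied to cells in 96-well plates for 48 hours at 5 doses. GI50: concentration for 50% inhibition of growth.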 The source made the active and inactive calls. Rule as the data show it: active = GI50 up to about 1.1 µM and inactive = higher."}
{"smiles": "Cc1ccc(Oc2cc(C)ccc2P(=O)(O)O)cc1", "values": [{"measurement": "GI50", "setting": "RPMI-8226", "value": "> 100 µM (inactive)"}, {"measurement": "GI50", "setting": "SK-OV-3", "value": "> 100 µM (inactive)"}, {"measurement": "GI50", "setting": "OVCAR-3", "value": "> 100 µM (inactive)"}, {"measurement": "GI50", "setting": "PC-3", "value": "> 100 µM (inactive)"}, {"measurement": "GI50", "setting": "IGROV-1", "value": "> 100 µM (inactive)"}, {"measurement": "GI50", "setting": "A549", "value": "> 100 µM (inactive)"}, {"measurement": "GI50", "setting": "SF-295", "value": "> 100 µM (inactive)"}, {"measurement": "GI50", "setting": "UACC-257", "value": "> 100 µM (inactive)"}, {"measurement": "GI50", "setting": "786-0", "value": "> 100 µM (inactive)"}, {"measurement": "GI50", "setting": "HOP-62", "value": "> 100 µM (inactive)"}, {"measurement": "GI50", "setting": "MOLT-4", "value": "> 100 µM (inactive)"}, {"measurement": "GI50", "setting": "NCI-H522", "value": "> 100 µM (inactive)"}, {"measurement": "GI50", "setting": "HCT-116", "value": "> 100 µM (inactive)"}, {"measurement": "GI50", "setting": "HOP-92", "value": "> 100 µM (inactive)"}, {"measurement": "GI50", "setting": "TK-10", "value": "> 100 µM (inactive)"}, {"measurement": "GI50", "setting": "SK-MEL-28", "value": "> 100 µM (inactive)"}, {"measurement": "GI50", "setting": "CCRF-CEM", "value": "> 100 µM (inactive)"}, {"measurement": "GI50", "setting": "HL-60", "value": "> 100 µM (inactive)"}, {"measurement": "GI50", "setting": "CAKI-1", "value": "> 100 µM (inactive)"}, {"measurement": "GI50", "setting": "SF-539", "value": "> 100 µM (inactive)"}, {"measurement": "GI50", "setting": "NCI-H23", "value": "> 100 µM (inactive)"}, {"measurement": "GI50", "setting": "NCI-H226", "value": "> 100 µM (inactive)"}, {"measurement": "GI50", "setting": "LOX IMVI", "value": "> 100 µM (inactive)"}, {"measurement": "GI50", "setting": "UACC-62", "value": "> 100 µM (inactive)"}, {"measurement": "GI50", "setting": "SW-620", "value": "> 100 µM (inactive)"}, {"measurement": "GI50", "setting": "MCF7", "value": "> 100 µM (inactive)"}, {"measurement": "GI50", "setting": "HCC 2998", "value": "> 100 µM (inactive)"}, {"measurement": "GI50", "setting": "MDA-MB-231", "value": "> 100 µM (inactive)"}, {"measurement": "GI50", "setting": "HCT-15", "value": "> 100", "unit": "µM"}, {"measurement": "GI50", "setting": "DU-145", "value": "> 100 µM (inactive)"}, {"measurement": "GI50", "setting": "RXF 393", "value": "> 100 µM (inactive)"}, {"measurement": "GI50", "setting": "SN12C", "value": "> 100 µM (inactive)"}, {"measurement": "GI50", "setting": "COLO 205", "value": "> 100 µM (inactive)"}, {"measurement": "GI50", "setting": "BT-549", "value": "> 100 µM (inactive)"}, {"measurement": "GI50", "setting": "MDA-N", "value": "> 100 µM (inactive)"}, {"measurement": "GI50", "setting": "SNB-19", "value": "> 100 µM (inactive)"}, {"measurement": "GI50", "setting": "SF-268", "value": "> 100 µM (inactive)"}, {"measurement": "GI50", "setting": "KM12", "value": "> 100 µM (inactive)"}, {"measurement": "GI50", "setting": "EKVX", "value": "> 100 µM (inactive)"}, {"measurement": "GI50", "setting": "MDA-MB-435", "value": "> 100 µM (inactive)"}, {"measurement": "GI50", "setting": "SNB-75", "value": "> 100 µM (inactive)"}, {"measurement": "GI50", "setting": "UO-31", "value": "> 100 µM (inactive)"}, {"measurement": "GI50", "setting": "OVCAR-8", "value": "> 100 µM (inactive)"}, {"measurement": "GI50", "setting": "SK-MEL-5", "value": "> 100 µM (inactive)"}, {"measurement": "GI50", "setting": "SK-MEL-2", "value": "> 100 µM (inactive)"}, {"measurement": "GI50", "setting": "M14", "value": "> 100 µM (inactive)"}, {"measurement": "GI50", "setting": "Hs-578T", "value": "> 100 µM (inactive)"}, {"measurement": "GI50", "setting": "K562", "value": "> 100 µM (inactive)"}]}
{"smiles": "COc1ccc(/C=N/CCC/N=C/c2ccc(OC)cc2O)c(O)c1", "values": [{"measurement": "GI50", "setting": "RPMI-8226", "value": "38.3 µM (inactive)"}, {"measurement": "GI50", "setting": "OVCAR-3", "value": "16 µM (inactive)"}, {"measurement": "GI50", "setting": "PC-3", "value": "42 µM (inactive)"}, {"measurement": "GI50", "setting": "IGROV-1", "value": "43.4 µM (inactive)"}, {"measurement": "GI50", "setting": "A549", "value": "> 100 µM (inactive)"}, {"measurement": "GI50", "setting": "SF-295", "value": "17.7 µM (inactive)"}, {"measurement": "GI50", "setting": "UACC-257", "value": "36.6 µM (inactive)"}, {"measurement": "GI50", "setting": "786-0", "value": "76.6 µM (inactive)"}, {"measurement": "GI50", "setting": "HOP-62", "value": "> 100 µM (inactive)"}, {"measurement": "GI50", "setting": "OVCAR-4", "value": "36.8 µM (inactive)"}, {"measurement": "GI50", "setting": "MOLT-4", "value": "49.1 µM (inactive)"}, {"measurement": "GI50", "setting": "NCI-H522", "value": "> 100 µM (inactive)"}, {"measurement": "GI50", "setting": "HCT-116", "value": "71.9 µM (inactive)"}, {"measurement": "GI50", "setting": "HOP-92", "value": "17.6 µM (inactive)"}, {"measurement": "GI50", "setting": "TK-10", "value": "> 100 µM (inactive)"}, {"measurement": "GI50", "setting": "SK-MEL-28", "value": "41 µM (inactive)"}, {"measurement": "GI50", "setting": "CCRF-CEM", "value": "29.6 µM (inactive)"}, {"measurement": "GI50", "setting": "HL-60", "value": "39.9 µM (inactive)"}, {"measurement": "GI50", "setting": "NCI-H23", "value": "> 100 µM (inactive)"}, {"measurement": "GI50", "setting": "NCI-H226", "value": "16.7 µM (inactive)"}, {"measurement": "GI50", "setting": "OVCAR-5", "value": "64.4 µM (inactive)"}, {"measurement": "GI50", "setting": "UACC-62", "value": "27 µM (inactive)"}, {"measurement": "GI50", "setting": "SW-620", "value": "57.9 µM (inactive)"}, {"measurement": "GI50", "setting": "Malme-3M", "value": "23.8 µM (inactive)"}, {"measurement": "GI50", "setting": "MCF7", "value": "55.7 µM (inactive)"}, {"measurement": "GI50", "setting": "MDA-MB-231", "value": "38.7 µM (inactive)"}, {"measurement": "GI50", "setting": "HCT-15", "value": 37.5, "unit": "µM"}, {"measurement": "GI50", "setting": "A498", "value": "> 100 µM (inactive)"}, {"measurement": "GI50", "setting": "U-251", "value": "40.6 µM (inactive)"}, {"measurement": "GI50", "setting": "DU-145", "value": "37.8 µM (inactive)"}, {"measurement": "GI50", "setting": "RXF 393", "value": "> 100 µM (inactive)"}, {"measurement": "GI50", "setting": "SN12C", "value": "26.1 µM (inactive)"}, {"measurement": "GI50", "setting": "NCI-H460", "value": "> 100 µM (inactive)"}, {"measurement": "GI50", "setting": "BT-549", "value": "48.9 µM (inactive)"}, {"measurement": "GI50", "setting": "SR", "value": "54.6 µM (inactive)"}, {"measurement": "GI50", "setting": "SNB-19", "value": "47 µM (inactive)"}, {"measurement": "GI50", "setting": "KM12", "value": "47.4 µM (inactive)"}, {"measurement": "GI50", "setting": "EKVX", "value": "29.3 µM (inactive)"}, {"measurement": "GI50", "setting": "MDA-MB-435", "value": "46.1 µM (inactive)"}, {"measurement": "GI50", "setting": "SNB-75", "value": "13.9 µM (inactive)"}, {"measurement": "GI50", "setting": "HT-29", "value": "97.3 µM (inactive)"}, {"measurement": "GI50", "setting": "UO-31", "value": "46 µM (inactive)"}, {"measurement": "GI50", "setting": "OVCAR-8", "value": "35.6 µM (inactive)"}, {"measurement": "GI50", "setting": "ACHN", "value": "48.6 µM (inactive)"}, {"measurement": "GI50", "setting": "SK-MEL-2", "value": "34.8 µM (inactive)"}, {"measurement": "GI50", "setting": "M14", "value": "75.3 µM (inactive)"}, {"measurement": "GI50", "setting": "Hs-578T", "value": "22 µM (inactive)"}, {"measurement": "GI50", "setting": "K562", "value": "69 µM (inactive)"}]}
